Target: human, KCNT1 (Homo sapiens (Human), UniProt Q5JUK3)
Test: FLIPR Tl/K Flux Assay
Assay type: cell-based
Settings: HEK293 cells stably expressing human KCNT1; Tl+ flux stimulated with EC80 of agonist Loxapine
Summary of the method: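 Inhibition values come from a Hill-equation fit of % inhibition versus log concentration, using normalized fluorescence (Fmax/Fmin) over a 160 s read. The read followed stimulation with Tl+ plus EC80 agonist loxapine after 30 min compound pre-incubation at 25 °C. Cells were KCNT1-expressing HEK293, dye-loaded 1 h in pH 7.4 HEPES/HBSS with 5 mM probenecid.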

Sequence of human, KCNT1 (Q5JUK3 whole entry): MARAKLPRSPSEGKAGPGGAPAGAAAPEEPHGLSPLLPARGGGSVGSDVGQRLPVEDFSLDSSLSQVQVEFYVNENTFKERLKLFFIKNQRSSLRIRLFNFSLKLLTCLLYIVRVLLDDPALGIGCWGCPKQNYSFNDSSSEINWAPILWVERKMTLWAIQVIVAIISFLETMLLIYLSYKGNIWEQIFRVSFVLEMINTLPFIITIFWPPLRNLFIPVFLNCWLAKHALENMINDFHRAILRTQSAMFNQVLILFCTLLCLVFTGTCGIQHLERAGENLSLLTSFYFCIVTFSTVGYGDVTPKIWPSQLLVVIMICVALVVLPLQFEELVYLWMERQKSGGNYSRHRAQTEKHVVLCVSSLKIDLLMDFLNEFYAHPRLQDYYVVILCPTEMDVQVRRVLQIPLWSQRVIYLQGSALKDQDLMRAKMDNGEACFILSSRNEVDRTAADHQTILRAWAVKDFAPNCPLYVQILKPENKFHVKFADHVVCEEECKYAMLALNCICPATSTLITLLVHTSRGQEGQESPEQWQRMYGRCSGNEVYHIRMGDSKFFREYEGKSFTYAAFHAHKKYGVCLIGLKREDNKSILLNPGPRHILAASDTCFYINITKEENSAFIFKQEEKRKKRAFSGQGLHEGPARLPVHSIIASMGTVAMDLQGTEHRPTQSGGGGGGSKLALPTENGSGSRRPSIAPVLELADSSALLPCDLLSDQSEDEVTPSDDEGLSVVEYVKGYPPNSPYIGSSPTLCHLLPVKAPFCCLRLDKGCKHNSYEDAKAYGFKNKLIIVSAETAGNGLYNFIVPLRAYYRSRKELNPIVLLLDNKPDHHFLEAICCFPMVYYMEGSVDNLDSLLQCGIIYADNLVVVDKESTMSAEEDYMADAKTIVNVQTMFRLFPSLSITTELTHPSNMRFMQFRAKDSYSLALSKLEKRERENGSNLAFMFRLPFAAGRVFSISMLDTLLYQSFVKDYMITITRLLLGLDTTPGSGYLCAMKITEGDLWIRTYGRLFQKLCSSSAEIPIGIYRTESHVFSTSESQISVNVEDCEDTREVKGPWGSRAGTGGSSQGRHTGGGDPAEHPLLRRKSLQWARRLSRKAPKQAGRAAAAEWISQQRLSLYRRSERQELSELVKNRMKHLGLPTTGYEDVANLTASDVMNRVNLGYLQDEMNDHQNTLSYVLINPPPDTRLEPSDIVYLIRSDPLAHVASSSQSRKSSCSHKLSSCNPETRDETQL

| SMILES | IC50 [nM] |
| --- | --- |
| O=C(N[C@H]1CCCc2nc(-c3ccnc(C4CC4)c3)oc21)c1cccc(C(F)(F)F)c1 [Compound I-171a, (S)-N-(2-(2-Cyclopropylpyridin-4-yl)-4,5,6,7-tetrahydrobenzo[d]oxazol-7-yl)-3-(trifluoromethyl)benzamide] | < 250 |
| COc1cc(-c2cc3n(n2)CC[C@@H]3NC(=O)c2cc(C(F)(F)F)nn2C)c(C(F)(F)F)cn1 [Compound I-172a, (S)-N-(2-(2-Methoxy-5-(trifluoromethyl)pyridin-4-yl)-5,6-dihydro-4H-pyrrolo[1,2-b]pyrazol-4-yl)-1-methyl-3-(trifluoromethyl)-1H-pyrazole-5-carboxamide] | < 250 |
| COc1cc(-c2cc3n(n2)CC[C@H]3NC(=O)c2cc(C(F)(F)F)nn2C)c(C(F)(F)F)cn1 [Compound I-172b] | > 1000 |
| COc1cc(-c2nc3c(o2)[C@@H](NC(=O)c2cncc(C(F)(F)F)n2)CCC3)c(F)cn1 [Compound I-173a] | 250 to 500 |
| COc1cc(-c2nc3c(o2)[C@@H](NC(=O)c2cc(Cl)cc(Cl)c2)CCC3)c(F)cn1 [Compound I-174a, (S)-3,5-Dichloro-N-(2-(5-fluoro-2-methoxypyridin-4-yl)-4,5,6,7-tetrahydrobenzo[d]oxazol-7-yl)benzamide] | < 250 |
| COc1cc(-c2nc3c(o2)[C@@H](NC(=O)c2ccnc(OC(F)(F)F)c2)CCC3)c(F)cn1 [Compound I-175a] | < 250 |
| COc1cc(-c2nc3c(o2)[C@@H](NC(=O)c2cccc(OC(F)(F)F)c2)CCC3)c(F)cn1 [Compound I-176a, (S)-N-(2-(5-Fluoro-2-methoxypyridin-4-yl)-4,5,6,7-tetrahydrobenzo[d]oxazol-7-yl)-3-(trifluoromethoxy)benzamide] | < 250 |
| COc1cc(-c2nc3c(o2)[C@@H](NC(=O)c2cccc(C(F)(F)F)c2)CCC3)c(F)cn1 [Compound I-177a, (S)-N-(2-(5-Fluoro-2-methoxypyridin-4-yl)-4,5,6,7-tetrahydrobenzo[d]oxazol-7-yl)-3-(trifluoromethyl)benzamide] | < 250 |
| Cc1cnc(C(F)(F)F)cc1-c1nc2c(o1)CCC[C@@H]2NC(=O)c1cc(C(F)(F)F)nn1C [Compound I-178a, (S)-1-Methyl-N-(2-(5-methyl-2-(trifluoromethyl)pyridin-4-yl)-4,5,6,7-tetrahydrobenzo[d]oxazol-4-yl)-3-(trifluoromethyl)-1H-pyrazole-5-carboxamide] | < 250 |
| O=C(N[C@H]1CCCn2nc(-c3cc(C(F)(F)F)ncc3Cl)cc21)c1ccnc(OC(F)(F)F)c1 [Compound I-179a, (S)-N-(2-(5-Chloro-2-(trifluoromethyl)pyridin-4-yl)-4,5,6,7-tetrahydropyrazolo[1,5-a]pyridin-4-yl)-2-(trifluoromethoxy)isonicotinamid] | < 250 |
| Cn1nc(C(F)(F)F)cc1C(=O)N[C@H]1CCCc2nc(-c3ccnc(C4CC4)c3)oc21 [Compound I-180a, (S)-N-(2-(2-Cyclopropylpyridin-4-yl)-4,5,6,7-tetrahydrobenzo[d]oxazol-7-yl)-1-methyl-3-(trifluoromethyl)-1H-pyrazole-5-carboxamide] | < 250 |
| Cc1cnc(C(F)(F)F)cc1-c1cc2n(n1)CCC[C@@H]2NC(=O)c1ccnc(OC(F)(F)F)c1 [Compound I-181a, (S)-N-(2-(5-Methyl-2-(trifluoromethyl)pyridin-4-yl)-4,5,6,7-tetrahydropyrazolo[1,5-a]pyridin-4-yl)-2-(trifluoromethoxy)isonicotinamide] | < 250 |
| O=C(N[C@H]1CCCn2nc(-c3cc(C(F)(F)F)ncc3F)nc21)c1cncc(C(F)(F)F)n1 [Compound I-182a, (S)-N-(2-(5-Fluoro-2-(trifluoromethyl)pyridin-4-yl)-5,6,7,8-tetrahydro-[1,2,4]triazolo[1,5-a]pyridin-8-yl)-6-(trifluoromethyl)pyrazine-2-carboxamide] | 500 to 1000 |
| COc1cc(-c2cc3n(n2)CCCC[C@@H]3NC(=O)c2cc(F)cc(C#N)c2)c(F)cn1 [Compound I-183a, (S)-3-Cyano-5-fluoro-N-(2-(5-fluoro-2-methoxypyridin-4-yl)-5,6,7,8-tetrahydro-4H-pyrazolo[1,5-a]azepin-4-yl)benzamide] | < 250 |

Results, then the molecule that gave them:

| IC50 [nM] | SMILES |
| --- | --- |
| < 250 | O=C(N[C@H]1CCCc2nc(-c3ccnc(C(F)(F)F)c3)oc21)c1cncc(C(F)(F)F)n1 [Compound I-184a, (S)-6-(Trifluoromethyl)-N-(2-(2-(trifluoromethyl)pyridin-4-yl)-4,5,6,7-tetrahydrobenzo[d]oxazol-7-yl)pyrazine-2-carboxamide] |
| < 250 | O=C(N[C@H]1CCCc2nc(-c3ccnc(C(F)(F)F)c3)oc21)c1cc(Cl)cc(Cl)c1 [Compound I-185a, (S)-3,5-Dichloro-N-(2-(2-(trifluoromethyl)pyridin-4-yl)-4,5,6,7-tetrahydrobenzo[d]oxazol-7-yl)benzamide] |
| < 250 | O=C(N[C@H]1CCCc2nc(-c3ccnc(C(F)(F)F)c3)oc21)c1ccnc(OC(F)(F)F)c1 [Compound I-186a, (S)-2-(Trifluoromethoxy)-N-(2-(2-(trifluoromethyl)pyridin-4-yl)-4,5,6,7-tetrahydrobenzo[d]oxazol-7-yl)isonicotinamide] |
| < 250 | O=C(N[C@H]1CCCc2nc(-c3ccnc(C(F)(F)F)c3)oc21)c1cccc(OC(F)(F)F)c1 [Compound I-187a, (S)-3-(Trifluoromethoxy)-N-(2-(2-(trifluoromethyl)pyridin-4-yl)-4,5,6,7-tetrahydrobenzo[d]oxazol-7-yl)benzamide] |
| < 250 | O=C(N[C@H]1CCCc2nc(-c3ccnc(C(F)(F)F)c3)oc21)c1cccc(C(F)(F)F)c1 [Compound I-188a, (S)-3-(Trifluoromethyl)-N-(2-(2-(trifluoromethyl)pyridin-4-yl)-4,5,6,7-tetrahydrobenzo[d]oxazol-7-yl)benzamide] |
| < 250 | Cn1nc(C(F)(F)F)cc1C(=O)N[C@H]1CCCc2oc(-c3cc(C(F)(F)F)ncc3Cl)nc21 [Compound I-189a] |
| < 250 | Cn1nc(C(F)(F)F)cc1C(=O)N[C@H]1CCc2nn(-c3cc(C4CC4)ncc3F)cc21 [Compound I-190a, (S)-N-(2-(2-Cyclopropyl-5-fluoropyridin-4-yl)-2,4,5,6-tetrahydrocyclopenta[c]pyrazol-4-yl)-1-methyl-3-(trifluoromethyl)-1H-pyrazole-5-carboxamide] |
| < 250 | Cn1nc(C(F)(F)F)nc1C(=O)N[C@H]1CCCc2oc(-c3cc(C4CC4)ncc3F)nc21 [Compound I-191a, (S)—N-(2-(2-Cyclopropyl-5-fluoropyridin-4-yl)-4,5,6,7-tetrahydrobenzo[d]oxazol-4-yl)-1-methyl-3-(trifluoromethyl)-1H-1,2,4-triazole-5-carboxamide] |
| 250 to 500 | Cc1nc(C(F)(F)F)oc1C(=O)N[C@H]1CCc2cnc(-c3ccnc(C(F)(F)F)c3)cc21 [Compound I-192a, (S)-4-Methyl-2-(trifluoromethyl)-N-(3-(2-(trifluoromethyl)pyridin-4-yl)-6,7-dihydro-5H-cyclopenta[c]pyridin-5-yl)oxazole-5-carboxamide] |
| < 250 | O=C(N[C@H]1CCCn2nc(-c3ccnc(C4CC4)c3)cc21)c1ccnc(OC(F)(F)F)c1 [Compound I-193a, (S)-N-(2-(2-Cyclopropylpyridin-4-yl)-4,5,6,7-tetrahydropyrazolo[1,5-a]pyridin-4-yl)-2-(trifluoromethoxy)isonicotinamide] |

Source: US20250313548A1 (Actio Biosciences, Inc., priority 2023, published 2025)
